Assay results: ChEMBL document CHEMBL1138895, “Synthesis and antibacterial activity of nocathiacin I analogues” (Bioorg Med Chem Lett, 2006)
Converted amounts (≈) assume the structure as drawn.

Tests used:
[1] = tested on: Staphylococcus aureus; experiment: Antibacterial activity against methicillin-sensitive Staphylococcus aureus A15090; type: functional
[2] = tested on: Streptococcus pneumoniae; experiment: Antibacterial activity against penicillin resistant Streptococcus pneumoniae A28272; type: functional
[3] = tested on: Enterococcus faecalis; experiment: Antibacterial activity against […] A20688; type: functional
[4] = species on record: Mus musculus; experiment: Activity against Staphylococcus aureus A15090 infected ICR mouse after 8 days; type: functional; conditions: 192 h, read-out: PD50
[5] = Solubility at pH 3.1; type: physicochemical; conditions: buffer
[6] = Solubility at pH 3.0; type: physicochemical; conditions: buffer
[7] = Solubility at pH 3.2; type: physicochemical; conditions: buffer
[8] = Solubility at pH 2.9; type: physicochemical; conditions: buffer

SMILES	MIC [1] [µg/mL]	MIC [2] [µg/mL]	MIC [3] [µg/mL]	ED50 [4] [mg/kg]	solubility [5] [µg/mL]	solubility [6] [µg/mL]	solubility [7] [µg/mL]	solubility [8] [µg/mL]
CO/C(C)=C1/NC(=O)[C@H]([C@@H](C)O)NC(=O)c2csc(n2)-c2cc(O)c(-c3nc(C(=O)N[C@@H](C)C(=O)NCc4ccc(O)cc4)cs3)nc2-c2csc(n2)[C@@H]2COC(=O)c3c4c5c(cccc5n3O)COC(=O)[C@@H](O[C@H]3C[C@](C)(O)[C@H](N(C)C)[C@H](C)O3)[C@@H](OC4)[C@H](NC(=O)c3csc1n3)c1nc(cs1)C(=O)N2	0.007 (≈ 0.00453 µM)	0.007 (≈ 0.00453 µM)	0.03 (≈ 0.0194 µM)	4.35	480 (≈ 311 µM)	–	–	–
CO/C(C)=C1/NC(=O)[C@H]([C@@H](C)O)NC(=O)c2csc(n2)-c2cc(O)c(-c3nc(C(=O)N[C@@H](C)C(=O)NC(CC(=O)O)C(=O)O)cs3)nc2-c2csc(n2)[C@@H]2COC(=O)c3c4c5c(cccc5n3O)COC(=O)[C@@H](O[C@H]3C[C@](C)(O)[C@H](N(C)C)[C@H](C)O3)[C@@H](OC4)[C@H](NC(=O)c3csc1n3)c1nc(cs1)C(=O)N2 (some centres undefined)	16 (≈ 10.3 µM)	0.25 (≈ 0.161 µM)	16 (≈ 10.3 µM)	–	–	–	–	–
CO/C(C)=C1/NC(=O)[C@H]([C@@H](C)O)NC(=O)c2csc(n2)-c2cc(O)c(-c3nc(C(=O)N[C@@H](C)C(=O)NCCc4ccc(O)c(O)c4)cs3)nc2-c2csc(n2)[C@@H]2COC(=O)c3c4c5c(cccc5n3O)COC(=O)[C@@H](O[C@H]3C[C@](C)(O)[C@H](N(C)C)[C@H](C)O3)[C@@H](OC4)[C@H](NC(=O)c3csc1n3)c1nc(cs1)C(=O)N2	0.25 (≈ 0.159 µM)	0.125 (≈ 0.0793 µM)	0.5 (≈ 0.317 µM)	> 10	–	7 (≈ 4.44 µM)	–	–
CO/C(C)=C1/NC(=O)[C@H]([C@@H](C)O)NC(=O)c2csc(n2)-c2cc(O)c(-c3nc(C(=O)N[C@@H](C)C(=O)N(C)C[C@@H](O)[C@@H](O)[C@@H](O)[C@@H](O)CO)cs3)nc2-c2csc(n2)[C@@H]2COC(=O)c3c4c5c(cccc5n3O)COC(=O)[C@@H](O[C@H]3C[C@](C)(O)[C@H](N(C)C)[C@H](C)O3)[C@@H](OC4)[C@H](NC(=O)c3csc1n3)c1nc(cs1)C(=O)N2	0.125 (≈ 0.0773 µM)	0.015 (≈ 0.00927 µM)	0.5 (≈ 0.309 µM)	–	–	–	> 2400	–
CO/C(C)=C1/NC(=O)[C@H]([C@@H](C)O)NC(=O)c2csc(n2)-c2cc(O)c(-c3nc(C(=O)N[C@@H](C)C(=O)N4CCC(O)CC4)cs3)nc2-c2csc(n2)[C@@H]2COC(=O)c3c4c5c(cccc5n3O)COC(=O)[C@@H](O[C@H]3C[C@](C)(O)[C@H](N(C)C)[C@H](C)O3)[C@@H](OC4)[C@H](NC(=O)c3csc1n3)c1nc(cs1)C(=O)N2	0.007 (≈ 0.00459 µM)	0.003 (≈ 0.00197 µM)	0.06 (≈ 0.0394 µM)	4.35	–	–	1100 (≈ 722 µM)	–
CO/C(C)=C1/NC(=O)[C@H]([C@@H](C)O)NC(=O)c2csc(n2)-c2cc(O)c(-c3nc(C(=O)N[C@@H](C)C(=O)NCCc4cc(O)cc(O)c4)cs3)nc2-c2csc(n2)[C@@H]2COC(=O)c3c4c5c(cccc5n3O)COC(=O)[C@@H](O[C@H]3C[C@](C)(O)[C@H](N(C)C)[C@H](C)O3)[C@@H](OC4)[C@H](NC(=O)c3csc1n3)c1nc(cs1)C(=O)N2	0.25 (≈ 0.159 µM)	0.06 (≈ 0.0381 µM)	0.5 (≈ 0.317 µM)	> 10	–	20 (≈ 12.7 µM)	–	–
CO/C(C)=C1/NC(=O)[C@H]([C@@H](C)O)NC(=O)c2csc(n2)-c2cc(O)c(-c3nc(C(=O)N[C@@H](C)C(=O)NCc4ccc(O)c(O)c4)cs3)nc2-c2csc(n2)[C@@H]2COC(=O)c3c4c5c(cccc5n3O)COC(=O)[C@@H](O[C@H]3C[C@](C)(O)[C@H](N(C)C)[C@H](C)O3)[C@@H](OC4)[C@H](NC(=O)c3csc1n3)c1nc(cs1)C(=O)N2	0.03 (≈ 0.0192 µM)	0.007 (≈ 0.00448 µM)	0.06 (≈ 0.0384 µM)	> 10	–	–	–	20 (≈ 12.8 µM)
CO/C(C)=C1/NC(=O)[C@H]([C@@H](C)O)NC(=O)c2csc(n2)-c2cc(O)c(-c3nc(C(=O)N[C@@H](C)C(=O)NCCc4ccc(O)cc4)cs3)nc2-c2csc(n2)[C@@H]2COC(=O)c3c4c5c(cccc5n3O)COC(=O)[C@@H](O[C@H]3C[C@](C)(O)[C@H](N(C)C)[C@H](C)O3)[C@@H](OC4)[C@H](NC(=O)c3csc1n3)c1nc(cs1)C(=O)N2	0.003 (≈ 0.00192 µM)	0.0005 (≈ 0.000321 µM)	0.007 (≈ 0.00449 µM)	> 10	–	–	120 (≈ 76.9 µM)	–
CO/C(C)=C1/NC(=O)[C@H]([C@@H](C)O)NC(=O)c2csc(n2)-c2cc(O)c(-c3nc(C(=O)N[C@@H](C)C(=O)NCCOCCOCCOCCOCCOCCOC4O[C@H](CO)[C@@H](O)[C@H](O)[C@H]4O)cs3)nc2-c2csc(n2)[C@@H]2COC(=O)c3c4c5c(cccc5n3O)COC(=O)[C@@H](O[C@H]3C[C@](C)(O)[C@H](N(C)C)[C@H](C)O3)[C@@H](OC4)[C@H](NC(=O)c3csc1n3)c1nc(cs1)C(=O)N2 (some centres undefined)	4 (≈ 2.14 µM)	1 (≈ 0.536 µM)	8 (≈ 4.29 µM)	–	–	–	–	> 3700
COCCOCCOCCOCCNC(=O)[C@H](C)NC(=O)c1csc(-c2nc3c(cc2O)-c2nc(cs2)C(=O)N[C@@H]([C@@H](C)O)C(=O)N/C(=C(\C)OC)c2nc(cs2)C(=O)N[C@@H]2c4nc(cs4)C(=O)N[C@@H](COC(=O)c4c5c6c(cccc6n4O)COC(=O)[C@@H](O[C@H]4C[C@](C)(O)[C@H](N(C)C)[C@H](C)O4)[C@H]2OC5)c2nc-3cs2)n1	0.06 (≈ 0.0368 µM)	0.003 (≈ 0.00184 µM)	0.5 (≈ 0.307 µM)	–	–	–	–	–
